Measurements published in patent US20040052922A1, “Nutritional and therapeutical preparations having antioxidant activity” (priority 2000, published 2004).

Legend:
Format in all cases: in vivo, rat
lipoperoxides = test: Lipoperoxides levels (malonyldialdehyde) in plasma, liver, brain and heart of rats on hypercaloric diet
Method: Rats received hypercaloric, hypertriglyceridemizing and hypercholesterolemizing diet. After twenty days of treatment, the effect of the compositions on the following parameters was evaluated: 1) lipoperoxides levels in plasma, liver, brain and heart; 80 Male rats, each weighing 150-200 g, were used. […] 20% casein; 3.5% mixture of oligoelements and mineral salts; 0.1% mixture of vitamins; 0.2% choline ditartrate; 2% cellulose; cholesterol 0.5%; 0.25% sodium cholate; 58.44% saccharose; 10.0% lard and 4.9% olive oil. […] Malonyldialdehyde was evaluated according to the procedure by K. Yagi et al., 1982, in “Lipid Peroxides in Biology and Medicine”, Academic Press, New York, pp. 324-340.

[1] = Total cholesterol, HDL cholesterol and triglycerids plasma levels in rats on hypercaloric diet
Method: (§1) Rats received hypercaloric, hypertriglyceridemizing and hypercholesterolemizing diet. After twenty days of treatment, the effect of the compositions on the following parameters was evaluated: 4) total cholesterol and HDL cholesterol plasma levels; 5) total triglycerids plasma levels. 80 Male rats, each weighing 150-200 g, were used. The animals were subdivided into 8 groups of 10 animals each: […] 20% casein; 3.5% mixture of oligoelements and mineral salts; 0.1% mixture of vitamins; 0.2% choline ditartrate; 2% cellulose; cholesterol 0.5%; 0.25% sodium cholate; 58.44% saccharose; 10.0% lard and 4.9% olive oil. […] 3rd group A: animals were treated with a polycosanols mixture (octacosanol=50%) of rice wax (PLC), animals received for 20 days the same diet as the controls, except that 0.5 g of rice wax polycosanols replaced in part a similar amount of olive oil (olive oil used: 4.4%). […] 5th group: treated with 1-piperoylpiperidine (P); animals received for 20 days the same diet as the controls, except that 0.025 g of 1-piperoylpiperidine replaced a similar amount of olive oil (olive oil used: 4.875%).

[2] = test system: membrane of plasma platelets; test: Membrane fluidity of plasma platelets (TMA-DPH fluorescent probe) in rats on hypercaloric, hyperlipidemizing diet; settings: expressed as % compared with controls values at time 0; after 20 days of dietary treatment
Method: as §1, with “evaluated:” for “evaluated: 4) total cholesterol and HDL cholesterol plasma levels; 5) total triglycerids plasma levels.”, “4.875%). […] Membrane fluidity of erythrocyte ghosts and plasma platelets was measured using TMA-DPH as fluorescent probe, according to the method by […]. et al., 1999, Thromb. Hoemost., 82 pp. 149.” for “4.875%).”

[3] = test system: membrane of erythrocyte ghosts; test: Membrane fluidity of erythrocyte ghosts (TMA-DPH fluorescent probe) in rats on hypercaloric, hyperlipidemizing diet; settings: expressed as % compared with controls values at time 0; after 20 days of dietary treatment
Method: as §1, with “evaluated:” for “evaluated: 4) total cholesterol and HDL cholesterol plasma levels; 5) total triglycerids plasma levels.”, “4.875%). […] Membrane fluidity of erythrocyte ghosts and plasma platelets was measured using TMA-DPH as fluorescent probe, according to the method by […]. et al., 1999, Thromb. Hoemost., 82 pp. 149.” for “4.875%).”

[4] = Body weight of rats on hypercaloric diet
Method: as §1, with “2) body weight;” for “4) total cholesterol and HDL cholesterol plasma levels; 5) total triglycerids plasma levels.”

[5] = after 20 days of diet treatment
[6] = in brackets, control after 20 day diet = 100%

## O=C(/C=C/C=C/c1ccc2c(c1)OCO2)N1CCCCC1 [P, 1-piperoylpiperidine]
lipoperoxides; brain, after 20 day dietary treatment
  MDA BRAIN: 107 ± 5 n mols of malonyldialdehyde (MDA) per gram of tissue
lipoperoxides; brain, vs control rats after 20 days of diet
  Percent change vs. controls (MDA BRAIN): −0.9%
lipoperoxides; heart, after 20 day dietary treatment
  MDA HEART: 44 ± 7 n mols of malonyldialdehyde (MDA) per gram of tissue
lipoperoxides; heart, vs control rats after 20 days of diet
  Percent change compared with controls (MDA HEART): −2.2%
lipoperoxides; liver, after 20 day dietary treatment
  MDA LIVER: 43.5 ± 7.8 n mols of malonyldialdehyde (MDA) per gram of tissue
lipoperoxides; liver, vs control rats after 20 days of diet
  Percent change vs. controls (MDA LIVER): −1.5%
lipoperoxides; plasma, after 20 day dietary treatment
  MDA PLASMA: 5.0 ± 0.3 n mols of malonyldialdehyde (M
lipoperoxides; plasma, vs control rats after 20 days of diet
  Percent change vs. controls (MDA PLASMA): −1.9%
[1]; [5]
  HDL cholesterol: 29.3 ± 1.5 mg/dL
  Total cholesterol: 125.2 ± 12.5 mg/dL
  total triglycerids: 81.9 ± 8.7 mg/dL
[1]; [6]
  Total cholesterol, percent change vs control rats after 20 day diet: −0.7%
  total triglycerids, percent change vs control rats after 20 day diet: −0.7%
[2]
  membrane fluidity (plasma platelets): 70%
[3]
  membrane fluidity (erythrocyte ghosts): 73%
[4]; [5]
  body weight: 223 ± 16 g
[4]; [6]
  body weight, percent change vs control rats after 20 day diet: −0.4%
